target: Cdc7 (Homo sapiens, UniProt O00311); test: Cdc7 cell pharmacodynamics assay Method 1: pS53MCM2 levels in HCT116 cells; format: cell-based; design: endogenous in cells; settings: 6 hours treatment, read-out: Biomarker Method 1 (pEC50) (converted)
Description: This protocol describes a method to investigate the inhibition of Cdc7 activity of compounds by measuring pS53MCM2 levels in cells after treatment.
• HCT116 cells (wild type P53 positive) • McCoys 5A media (PAA Laboratories Ltd, E15-022) • 10% FCS (Sera Laboratories International Ltd, EU000F Batch: 108005) • 100× L-Glutamine (Invitrogen, 25030-024) • D-PBS without CaCl2 and MgCl2 (Invitrogen, ref. 14190-094) • Trypsin/EDTA (Invitrogen 25300-054) • 2% BSA in PBS • Cell Extraction Buffer (Invitrogen FNN0011) • Protease inhibitor cocktail (Sigma P-2714) • PMSF 0.3M stock in DMSO (Sigma P7626) • Antibody—rabbit pMCM2 Ser53 (Bethyl #A300-756A) • Antibody—goat MCM2 (Bethyl #A300-122A) • Antibody—goat Anti Rabbit IgG HRP (Perbio Science UK Ltd 31462) • 1×PBS • FACE Wash buffer (0.02% Triton X100 in 1×PBS) • SuperSignal ELISA Pico Chemiluminescent Substrate (Perbio Science UK Ltd 37070) Method • 72 hours prior to the start of the experiment plate 1×10^6 HCT116 cells in a 150 cm^2 flask in complete McCoys 5A media (+10% FCS+1× L-glutamine). • Plate 20,000 HCT116 cells per well in standard TC treated 96 well plate in 100 μL complete McCoys 5A media. • Allow cells to settle overnight in incubator set at 37° C. and 5% CO2. • Remove intermediate plate from fridge and place at 37° C. overnight to allow to equilibrate. • Cell treatment: cell assay plate 100 μL; daughter to cell transfer volume 3.33 μL; daughter volume 45 μL; mother plate to daughter volume 5 μL. • Once all cells are treated remove the cells to the incubator and incubate for 6 hours. • Dilute the capture antibody (total MCM2 #A300-122A) 1 in 250 in the required volume of PBS (5 mL per assay plate) and add 50 μL to each well of a Hybond plate excluding wells 12E to 12H. In these wells add 50 μL PBS. Seal the plate and incubate at room temperature fora minimum of 2 hours. • Defrost aliquot of Invitrogen Cell Extraction Buffer (FNN0011) on ice and supplement with appropriate volume of both Sigma protease inhibitor cocktail (P-2714) and PMSF (final cone 1 mM from a […] in DMSO). • After the 6 hour cell treatment time tap out the media from the assay plates and place them in the −70° C. freezer for at least 5 minutes. • Remove plates from freezer and add 20 μL of ice cold complete lysis buffer on ice. Incubate cells for 30 minutes at 4° C. • Add 80 μL per well 2% BSA. • Transfer 80 μL from the lysis plate to the same wells in the capture/ELISA plate. Cover with plate seal and incubate plates overnight at 4° C. • Wash plates with PBS, remove any residual remaining liquid and add 50 μL per well of pMCM2 Ser53 antibody (#A300-756A) diluted 1 in 100 in 2% BSA. Cover plate and incubate at room temperature for 2 hours with gentle shaking. • Wash plates with PBS, remove any residual remaining liquid and Incubate with 50 μL goat anti rabbit antibody (1 in 800 dilution in 2% BSA) for 1 hour at room temperature. • Wash plates with PBS, remove any residual remaining liquid and add 50 μL mixed SuperSignal Pico substrate. • Incubate each plate for 5 minutes at room temperature shielding the plates from direct light (with a cover plate). Read plates with the luminescent detection. Method 2

Chain of Cdc7 (O00311 whole entry): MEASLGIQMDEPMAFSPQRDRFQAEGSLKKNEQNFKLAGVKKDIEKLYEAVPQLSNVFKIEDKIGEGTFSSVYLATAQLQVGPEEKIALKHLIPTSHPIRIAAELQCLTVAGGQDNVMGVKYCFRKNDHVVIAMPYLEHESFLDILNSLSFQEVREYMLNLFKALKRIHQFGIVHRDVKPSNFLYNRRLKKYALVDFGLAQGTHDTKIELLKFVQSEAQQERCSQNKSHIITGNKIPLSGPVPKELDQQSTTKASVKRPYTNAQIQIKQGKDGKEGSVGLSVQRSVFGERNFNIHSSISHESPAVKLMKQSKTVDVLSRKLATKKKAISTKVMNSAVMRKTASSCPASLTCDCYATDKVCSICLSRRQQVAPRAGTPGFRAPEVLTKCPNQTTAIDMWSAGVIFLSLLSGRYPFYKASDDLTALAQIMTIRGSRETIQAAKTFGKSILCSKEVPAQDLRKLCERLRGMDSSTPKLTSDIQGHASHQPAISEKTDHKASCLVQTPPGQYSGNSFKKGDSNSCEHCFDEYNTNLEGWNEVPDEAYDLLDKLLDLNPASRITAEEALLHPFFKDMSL
Chain of Cdc7 (Q9UBU7 whole entry partner): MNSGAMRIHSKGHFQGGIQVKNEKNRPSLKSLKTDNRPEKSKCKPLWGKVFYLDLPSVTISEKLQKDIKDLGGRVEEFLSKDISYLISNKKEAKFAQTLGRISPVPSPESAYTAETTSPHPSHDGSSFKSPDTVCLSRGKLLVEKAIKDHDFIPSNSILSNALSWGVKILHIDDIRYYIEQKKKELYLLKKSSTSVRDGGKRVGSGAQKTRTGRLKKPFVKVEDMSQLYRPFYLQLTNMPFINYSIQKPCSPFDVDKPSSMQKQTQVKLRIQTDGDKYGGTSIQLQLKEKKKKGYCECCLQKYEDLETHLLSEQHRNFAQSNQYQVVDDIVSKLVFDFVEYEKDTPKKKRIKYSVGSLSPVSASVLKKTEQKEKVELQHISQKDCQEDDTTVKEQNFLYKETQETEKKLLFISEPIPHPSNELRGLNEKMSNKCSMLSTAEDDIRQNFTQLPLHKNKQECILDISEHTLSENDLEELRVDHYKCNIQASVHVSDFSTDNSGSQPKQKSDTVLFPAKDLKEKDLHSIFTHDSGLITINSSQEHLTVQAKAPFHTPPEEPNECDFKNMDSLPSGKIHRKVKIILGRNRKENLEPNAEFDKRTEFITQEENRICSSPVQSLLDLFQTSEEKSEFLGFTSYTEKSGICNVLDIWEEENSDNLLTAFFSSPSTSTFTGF

EC50	Structure (SMILES)
107 nM	Cc1ncsc1-c1nc(C2CCOCC2)c(Cl)c(=O)[nH]1 [Compound 6, 5-chloro-2-(4-methylthiazol-5-yl)-4-tetrahydropyran-4-yl-1H-pyrimidin-6-one]
45.7 nM	Cc1ncsc1-c1nc(N2CCN[C@@H](C(F)(F)F)C2)c(Cl)c(=O)[nH]1 [Compound 28, 5-chloro-2-(4-methylthiazol-5-yl)-4-[(3R)-3-(trifluoromethyl)piperazin-1-yl]-1H-pyrimidin-6-one]
45.7 nM	O=c1[nH]c(-c2scnc2Cl)nc(C2CCOCC2)c1Cl [Compound 4, 5-chloro-2-(4-chlorothiazol-5-yl)-4-tetrahydropyran-4-yl-1H-pyrimidin-6-one]
158 nM	O=c1[nH]c(-c2scnc2C(F)(F)F)nc(C2CCOCC2)c1Cl [Compound 14, 5-chloro-4-tetrahydropyran-4-yl-2-[4-(trifluoromethyl)thiazol-5-yl]-1H-pyrimidin-6-one]
112 nM	O=c1[nH]c(-c2cn[nH]c2C(F)(F)F)nc(C2CCOCC2)c1Cl [Compound 17, 5-chloro-4-tetrahydropyran-4-yl-2-[5-(trifluoromethyl)-1H-pyrazol-4-yl]-1H-pyrimidin-6-one]

Source: patent US11766434B2, “Pyrimidinone derivatives as CDC7 inhibitors” (Cancer Research Technology Limited, priority 2016, dated 2023)
